ChEMBL document CHEMBL4806962, “Methods and Compositions for Treating Cancer” (2020)
Active and inactive are the calls of the source. The rule behind the calls is not given here.

What was measured:
[1] = system: Splenocyte; experiment: Effects of compound on IL-2 production in anti-CD3/CD28-stimulated GPR174 knock out mouse spleenocytes assessed as fold increase in IL-2 level at 0.3 uM after 2 days in presence of NECA; type: functional, cell-based; conditions: time 2.0 day
[2] = Ratio of FC for induction of IL-2 production in anti-CD3/CD28-stimulated human PBMCs at 1 uM after 24 hrs in presence of ZM-241385 and MRS-1754 to FC for induction of IL-2 production in anti-CD3/CD28-stimulated human PBMCs at 1 uM after 24 hrs in presence of ZM-241385 and absence of MRS-1754; type: functional, PBMC
[3] = system: PBMC; experiment: Effects of compound on IL-2 production in anti-CD3/CD28-stimulated human PBMCs assessed as increase in IL-2 level after 3 days by ELISA; type: functional, tissue-based; conditions: dose 3-60 µM, time 3.0 day
[4] = Effects of compound on anti-CD3/CD28-stimulated human PBMCs assessed as CD4-positive cells population at 10 uM after 2 days by flow cytometric analysis; type: functional, PBMC; conditions: time 2 day
[5] = system: PBMC; experiment: Effects of compound on INF-gamma production in anti-CD3/CD28-stimulated human PBMCs assessed as increase in INF-gamma level after 2 days by ELISA; type: functional, tissue-based; conditions: dose 1-10 µM, time 2.0 day
[6] = system: Splenocyte; experiment: Effects of compound on IL-2 production in anti-CD3/CD28-stimulated GPR174 knockdown mouse splenocytes assessed as increase in IL-2 levels at 10 uM after 48 hrs; type: functional, cell-based
[7] = system: PBMC; experiment: Effect of compound on human PBMCs assessed as reduction in CTLA4 expression in memory non-Treg cells after 1 day by flow cytometric analysis; type: functional, cell-based; conditions: dose 0.19-6 µM
[8] = target: Probable G-protein coupled receptor 174 (Homo sapiens, UniProt Q9BXC1); experiment: Antagonist activity at GPR174 (unknown origin) expressed in HEK293 cells assessed as inhibition of PS-induced GPR174 signaling at 1 to 2 uM incubated for 15 mins by GloSensor assay; type: functional, cell-based; parameters: scale not given: the % may be the effect or the level left; conditions: filed as antagonist, dose 1-2 µM
[9] = system: PBMC; experiment: Effects of compound on TNF-alpha production in anti-CD3/CD28-stimulated human PBMCs assessed as fold increase in TNF-alpha level at 30 uM after 2 days by ELISA; type: functional, tissue-based; conditions: time 2.0 day

Probable G-protein coupled receptor 174, sequence (Q9BXC1 whole entry): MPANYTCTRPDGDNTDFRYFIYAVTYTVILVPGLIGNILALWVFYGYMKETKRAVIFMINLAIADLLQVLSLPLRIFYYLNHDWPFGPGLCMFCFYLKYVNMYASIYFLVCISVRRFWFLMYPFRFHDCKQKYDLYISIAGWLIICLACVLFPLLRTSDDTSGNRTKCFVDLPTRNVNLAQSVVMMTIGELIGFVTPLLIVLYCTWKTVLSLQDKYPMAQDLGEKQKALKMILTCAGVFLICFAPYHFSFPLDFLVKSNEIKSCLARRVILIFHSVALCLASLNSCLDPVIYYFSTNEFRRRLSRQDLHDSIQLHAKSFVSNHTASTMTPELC

In the case of `CC1CCN(c2cc(N3CCN(S(=O)(=O)c4ccccc4)CC3)c([N+](=O)[O-])cc2F)CC1`, the Activity [1] was “inactive”, the Ratio [2] was 0.7 and the Activity [3] was “Dose-Dependent Effect”. For the same compound, the Activity [4] was 31.8%, the Activity [5] was “Dose-Dependent Effect” and the Activity [6] was “inactive”. The Activity [7] was “Dose-Dependent Effect”, the Activity [8] was 100% and the Activity [9] was “Active”.
